Patent US10640430B2, “Fertilizer capsule comprising one or more cores and method of making same” (SAUDI BASIC INDUSTRIES CORPORATION, priority 2014, dated 2020)
“Also recorded” adds a separate entry of the source.

Assays:
[1] = cited from earlier work
[2] = Stability of NBTPT during oven drying of water containing extrudates; type: physicochemical; settings: extrudates dried in oven at 120° C. overnight
From the text: Optimized formulations from the DACA were successfully extruded in the pilot scale extruder in 300 g scale. 100% bleached wheat flour was also extruded with 10-20% water which was not done in DACA.

[3] = Thermal stability of neat NBTPT and NBTPT within a core at 133-135° C. by HPLC; type: physicochemical; settings: exposed to 133-135° C. (urea melt temperature), up to 30 min
Description: The thermal stability of neat NBTPT and NBTPT contained within a core, as disclosed herein, can be determined by HPLC. For example, neat NBTPT or a core containing NBTPT can be exposed to 135° C. (133-135° C. is the typical temperature range of a urea melt) and can continuously be analyzed by HPLC every 5 min. Such data will determine how whether the NBTPT has better thermal stability when contained within a core, as compared to neat NBTPT.
The thermal stability of neat NBTPT and NBTPT within a core was determined by HPLC. The core for this example contained 58.8 wt % PoP, 39.2 wt % bleached wheat flour, and 2.0 wt % NBTPT. Both neat NBTPT and NBTPT within a core were exposed to 133-135° C., which is the typical urea melt temperature. […] The data indicates the core protects fertilizer additive materials, such as an inhibitor, from degradation during manufacturing conditions, including the expose of temperatures associated with a urea melt. The thermal stability of materials, such as an inhibitor is critical for its good performance (inhibition) in the soil. The intended function of a material, such as an inhibitor, can be lost if the material degrades when exposed to high temperatures during the manufacturing process.

[4] = Stability of inhibitors in extrudates in urea melt (HPLC, LCMS); type: physicochemical; settings: urea melt conditions
Description: Representative procedure for checking the Inhibitor stability in urea melt: The extrudate (1.0 g) was added to a vial containing urea melt (3.0 g) and it was left at the same temperature for one minute. The Vial was then cooled to room temperature and diluted with 5.0 ml of water (milli-Q water). The water was decanted and the same process was repeated twice, to remove most of the urea. Finally, water (5.0 ml) was added to the extrudate and left for 4 h before submitting the samples for HPLC analysis.
Stability of inhibitors in urea melt: Extrudates containing inhibitors were tested for their stability in urea melt using HPLC and LCMS.
Extrudates containing NBTPT/DCD were dipped in urea melt in order to check the stability of the extrudates. Two types of studies were performed, 1) to check the deformation ability of extrudate in urea melt; and 2) to check the stability of inhibitors. Castor wax extrudates with and without inhibitors sustain the urea melt conditions under 5 seconds but inhibitors (NBTPT and DCD) were stable under these conditions. Bleached wheat flour containing extrudates sustained the urea melt temperature (133-135° C.). High melt waxes are taken in to consideration in order to mitigate the problem of possible deformation of wax extrudates when exposed to urea melt. The extrudates of high melt waxes were exposed to urea melt. […] The stability of NBTPT and DCD under urea melt temperature were analyzed and confirmed by HPLC and LCMS.

[5] = bleached wheat flour extrudate containing the inhibitor
[6] = castor wax extrudate containing the inhibitor

SMILES	Stability under acidic pH ([1]; acidic pH)	Stability of NBTPT on drying [2]	Thermal stability (decomposition by HPLC) ([3]; listed as Neat NBTPT)	Thermal stability (decomposition by HPLC) ([3]; listed as neat NBTPT)	Degradation of inhibitor in HPLC [4, 5]	Degradation of inhibitor in HPLC [4, 6]	Thermal stability in the soil ([1]; hot climatic region, soil)
CCCCNP(N)(N)=S [NBTPT, N-(n-butyl) thiophosphoric triamide]	unstable	stable	significant degradation	decomposes	no degradation	stable; also recorded: no degradation	
N#CN=C(N)N [DCD, dicyandiamide]					no degradation	stable; also recorded: no degradation	thermal instability
